# Reference: patent US5525626A (priority 1989, dated 1996)
# Columns and labels:
# Test in all cases: 3H-thymidine assay
# Type in all cases: cell-based
# [1] = test system: CAKI-1 cells; details: Homo sapiens, CAKI-1
# Experimental: (§1) The cell lines were cultivated as indicated in Example 1.
# (§2) The antiproliferative effect of the 1,2-benzopyrone derivatives according to the invention on the tumor cell lines in each case was shown with the help of the ^3 H-thymidine insertion and with reference to growth curves.
# (§3) In a 24-well-plate, in each case 10^4 cells of the line to be investigated were inoculated per well. Approximately 48 hours later the cells were half-confluent; the medium was then changed and replaced by a medium containing the active substance in question (cf Table 3). After a further 48 hours 0.25 μCi ^3 H-thymidine (Ammersham) was added to each well and the cells were incubated for a further 24 hours. Subsequently the cultures were washed twice with ice-cold PBS and the high-molecular-weight ^3 H-radioactivity was precipitated with 5% trichloroacetic acid for one hour at 4° C. After the washing of the cells in PBS the ^3 H-radioactivity was solubilized with 0.3M NaOH and measured in the counter. The growth-inhibition was determined by comparing the thymidine insertion of the cells treated with active substance with untreated cells.
# (§4) The active substance concentration in each case was so chosen that ^3 H-thymidine insertion was 50% inhibited. The active substance concentrations used under this aspect for the active substances and cell lines in each case are given in table 4 below in μM/ml, […]
# [2] = test system: At T 20; details: Mus musculus, AtT20
# Experimental: as §1, §2, §3, §4
# [3] = test system: MCF-7 breast cancer cells; details: Homo sapiens, MCF7
# Experimental: as §1, §2, §3, §4
# [4] = test system: K-562 leukemic cells; details: Homo sapiens, K562
# Experimental: as §1, §2, §3, §4
# [5] = test system: Z-R-75-1 breast cancer cells; details: Homo sapiens, ZR-75-1
# [6] = test system: HCV cells
# [7] = test system: Tp 242 MG glioblastoma cells; details: Homo sapiens
# [8] = test system: Tp 410 N neuroblastoma cells; details: Homo sapiens, Neuroblastoma cell
# [9] = test system: CAKI-2 cells; details: Homo sapiens, CAKI-2
# Experimental: as §1, §2
# as §3, with “After a further 48 hours 0.25 μCi ^3 H-thymidine (Ammersham) was added to each well and the cells were incubated for a further 24 hours.” left out
# as §4
# [10] = 1 μM/ml, read-out: 3H-thymidine tracer (%) of control
# [11] = 2 μM/ml, read-out: 3H-thymidine tracer (%) of control
# [12] = 4 μM/ml, read-out: 3H-thymidine tracer (%) of control
# [13] = 8 μM/ml, read-out: 3H-thymidine tracer (%) of control
# [14] = 16 μM/ml, read-out: 3H-thymidine tracer (%) of control
# [15] = 25 μM/ml, read-out: 3H-thymidine tracer (%) of control
# [16] = 50 μM/ml, read-out: 3H-thymidine tracer (%) of control
# [17] = 100 μM/ml, read-out: 3H-thymidine tracer (%) of control
# [18] = 150 μM/ml, read-out: 3H-thymidine tracer (%) of control
# [19] = 500 μM/ml, read-out: 3H-thymidine tracer (%) of control
# [20] = Table 4, *: maximum usable dosage, no 50% inhibition, read-out: active substance concentration at which 3H-thymidine insertion was 50% inhibited
# [21] = 250 μM/ml, read-out: 3H-thymidine tracer (%) of control
# [22] = Table 4, read-out: active substance concentration at which 3H-thymidine insertion was 50% inhibited
# [23] = read-out: 3H-thymidine tracer (%) of control
# [24] = 1 μM/ml, read-out: 3H-thymidine insertion (%) of control
# [25] = 2 μM/ml, read-out: 3H-thymidine insertion (%) of control
# [26] = 4 μM/ml, read-out: 3H-thymidine insertion (%) of control
# [27] = 8 μM/ml, read-out: 3H-thymidine insertion (%) of control
# [28] = 16 μM/ml, read-out: 3H-thymidine insertion (%) of control
# [29] = 25 μM/ml, read-out: 3H-thymidine insertion (%) of control
# [30] = 50 μM/ml, read-out: 3H-thymidine insertion (%) of control
# [31] = 100 μM/ml, read-out: 3H-thymidine insertion (%) of control
# [32] = 250 μM/ml, read-out: 3H-thymidine insertion (%) of control
# [33] = 500 μM/ml, read-out: 3H-thymidine insertion (%) of control
structure (smiles),measurement,setting,value
"O=c1ccc2cc(O)c(O)cc2o1 [Esculetin, 6,7-hydroxy-1,2-benzopyrone]",activity at 1 µM,[1]; [10],96%
same,activity at 2 µM,[1]; [11],93%
same,activity at 4 µM,[1]; [12],88%
same,activity at 8 µM,[1]; [13],80%
same,activity at 16 µM,[1]; [14],62%
same,activity at 25 µM,[1]; [15],58%
same,activity at 50 µM,[1]; [16],53%
same,activity at 100 µM,[1]; [17],45%
same,activity at 150 µM,[1]; [18],40%
same,activity at 500 µM,[1]; [19],32%
same,IC50,[1]; [20],50 µM
same,activity at 1 µM,[2]; [10],93%
same,activity at 2 µM,[2]; [11],89%
same,activity at 4 µM,[2]; [12],86%
same,activity at 8 µM,[2]; [13],75%
same,activity at 16 µM,[2]; [14],75%
same,activity at 25 µM,[2]; [15],67%
same,activity at 50 µM,[2]; [16],62%
same,activity at 100 µM,[2]; [17],55%
same,activity at 250 µM,[2]; [21],49%
same,activity at 500 µM,[2]; [19],44%
same,IC50,[2]; [22],250 µM
same,activity at 1 µM,[3]; [10],100%
same,activity at 2 µM,[3]; [11],98%
same,activity at 4 µM,[3]; [12],92%
same,activity at 8 µM,[3]; [13],85%
same,activity at 16 µM,[3]; [14],76%
same,activity at 25 µM,[3]; [15],69%
same,activity at 50 µM,[3]; [16],64%
same,activity at 100 µM,[3]; [17],58%
same,activity at 250 µM,[3]; [21],50%
same,activity at 500 µM,[3]; [19],42%
same,IC50,[3]; [20],250 µM
same,activity at 1 µM,[4]; [10],97%
same,activity at 2 µM,[4]; [11],95%
same,activity at 4 µM,[4]; [12],84%
same,activity at 8 µM,[4]; [13],77%
same,activity at 16 µM,[4]; [14],62%
same,activity at 25 µM,[4]; [15],58%
same,activity at 50 µM,[4]; [16],50%
same,activity at 100 µM,[4]; [17],47%
same,activity at 250 µM,[4]; [21],44%
same,activity at 500 µM,[4]; [19],31%
same,IC50,[4]; [22],50 µM
same,activity at 1 µM,[5]; [10],98%
same,activity at 2 µM,[5]; [11],96%
same,activity at 4 µM,[5]; [12],89%
same,activity at 8 µM,[5]; [13],84%
same,activity at 16 µM,[5]; [14],77%
same,activity at 25 µM,[5]; [15],70%
same,activity at 50 µM,[5]; [16],61%
same,activity at 100 µM,[5]; [17],53%
same,activity at 250 µM,[5]; [21],46%
same,activity at 500 µM,[5]; [19],39%
same,IC50,[5]; [20],175 µM
same,activity at 1 µM,[6]; [23],99%
same,activity at 2 µM,[6]; [23],94%
same,activity at 4 µM,[6]; [23],87%
same,activity at 8 µM,[6]; [23],83%
same,activity at 16 µM,[6]; [23],78%
same,activity at 25 µM,[6]; [23],76%
same,activity at 50 µM,[6]; [23],71%
same,activity at 250 µM,[6]; [23],64%
same,activity at 500 µM,[6]; [23],62%
same,IC50,[6]; read-out: active substance concentration at which 3H-thymidine insertion was 50% inhibited,> 500 µM
same,activity at 1 µM,[7]; [24],96%
same,activity at 2 µM,[7]; [25],96%
same,activity at 4 µM,[7]; [26],89%
same,activity at 8 µM,[7]; [27],87%
same,activity at 16 µM,[7]; [28],75%
same,activity at 25 µM,[7]; [29],72%
same,activity at 50 µM,[7]; [30],60%
same,activity at 100 µM,[7]; [31],44%
same,activity at 250 µM,[7]; [32],32%
same,activity at 500 µM,[7]; [33],21%
same,IC50,[7]; [22],75 µM
same,activity at 1 µM,[8]; [24],94%
same,activity at 2 µM,[8]; [25],86%
same,activity at 4 µM,[8]; [26],75%
same,activity at 8 µM,[8]; [27],69%
same,activity at 16 µM,[8]; [28],64%
same,activity at 25 µM,[8]; [29],48%
same,activity at 50 µM,[8]; [30],42%
same,activity at 100 µM,[8]; [31],40%
same,activity at 250 µM,[8]; [32],34%
same,activity at 500 µM,[8]; [33],29%
same,IC50,[8]; [22],25 µM
same,activity at 1 µM,[9]; [10],98%
same,activity at 2 µM,[9]; [11],94%
same,activity at 4 µM,[9]; [12],90%
same,activity at 8 µM,[9]; [13],87%
same,activity at 16 µM,[9]; [14],82%
same,activity at 25 µM,[9]; [15],69%
same,activity at 50 µM,[9]; [16],65%
same,activity at 100 µM,[9]; [17],54%
same,activity at 150 µM,[9]; [18],53%
same,activity at 500 µM,[9]; [19],50%
same,IC50,[9]; [20],500 µM
